Here are results for five compounds from PubChem BioAssay AID1918998 (Molecular Pharmacology Branch, DTP, NCI, 2023).

Values joined by “and” are separate entries in the source; they are usually repeats but may differ in a detail not shown here. Equal values may be shown once. Bounds are passed on as bounds.

This assay deals with 521955-158-R2-J5-PDC complex spheroid growth. The experiment in a line: Anticancer human tumor 521955-158-R2-J5-PDC patient-derived pancreatic carcinoma cell line growth inhibition [AhR]. The note with it: for viability, T/C: stronger effect = lower value. The gist of the method: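 Complex tumor spheroids co-cultured with HUVEC and human MSC stroma; AhR antagonists tested in combination with standard-of-care and investigational agents. Top concentration at or near clinical Cmax (else 10 microM), half-log dilutions; growth expressed as percent test/control.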

The mark [1] stands for this setting: curve of first compound, second compound 0.1 µM.
Setting [2] is: curve of first compound, second compound 0.316 µM.
Setting [3] is: curve of first compound, second compound 1 µM.
[4] abbreviates: curve of first compound, second compound 3.16 µM.
[5] abbreviates: curve of first compound, second compound 10 µM.
The mark [6] stands for this setting: second compound 0.1 µM, first compound 0.000949 µM.
The mark [7] stands for this setting: second compound 0.1 µM, first compound 0.003 µM.
The mark [8] stands for this setting: second compound 0.1 µM, first compound 0.00949 µM.
Where [9] appears, read: second compound 0.1 µM, first compound 0.03 µM.
Setting [10] is: second compound 0.1 µM, first compound 0.0949 µM.
Setting [11] is: second compound 0.1 µM, first compound 0.3 µM.
The mark [12] stands for this setting: second compound 0.316 µM, first compound 0.000949 µM.
[13] abbreviates: second compound 0.316 µM, first compound 0.003 µM.
Where [14] appears, read: second compound 0.316 µM, first compound 0.00949 µM.
Where [15] appears, read: second compound 0.316 µM, first compound 0.03 µM.
The mark [16] stands for this setting: second compound 0.316 µM, first compound 0.0949 µM.
[17] abbreviates: second compound 0.316 µM, first compound 0.3 µM.
Where [18] appears, read: second compound 1 µM, first compound 0.000949 µM.
Where [19] appears, read: second compound 1 µM, first compound 0.003 µM.
Where [20] appears, read: second compound 1 µM, first compound 0.00949 µM.
Setting [21] is: second compound 1 µM, first compound 0.03 µM.
The mark [22] stands for this setting: second compound 1 µM, first compound 0.0949 µM.
[23] abbreviates: second compound 1 µM, first compound 0.3 µM.
Setting [24] is: second compound 3.16 µM, first compound 0.000949 µM.
[25] abbreviates: second compound 3.16 µM, first compound 0.003 µM.
The mark [26] stands for this setting: second compound 3.16 µM, first compound 0.00949 µM.
Where [27] appears, read: second compound 3.16 µM, first compound 0.03 µM.
Where [28] appears, read: second compound 3.16 µM, first compound 0.0949 µM.
[29] abbreviates: second compound 3.16 µM, first compound 0.3 µM.
Setting [30] is: second compound 10 µM, first compound 0.000949 µM.
Setting [31] is: second compound 10 µM, first compound 0.003 µM.
Where [32] appears, read: second compound 10 µM, first compound 0.00949 µM.
Setting [33] is: second compound 10 µM, first compound 0.03 µM.
[34] abbreviates: second compound 10 µM, first compound 0.0949 µM.
Where [35] appears, read: second compound 10 µM, first compound 0.3 µM.
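Throughout, for viability, T/C: spheroids mix tumor cells with HUVEC endothelium and human MSC stroma; luminescence taken as viability surrogate after a week of drug exposure.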

For the compound `CCc1c2c(nc3ccc(O)cc13)-c1cc3c(c(=O)n1C2)COC(=O)[C@]3(O)CC` + Cc1cncc(-c2nc(NCCc3c[nH]c4ccccc34)c3ncn(C(C)C)c3n2)c1, the IC50 amounted to 4.04 nM under setting [1]; 3.98 nM under setting [2]; 4.17 nM under setting [3]; 4.21 nM under setting [4]; 3 nM under setting [5]. Also, the viability, T/C reads like this: under setting [6], 78.5%; under setting [7], 58.6%; under setting [8], 25.2%; under setting [9], 16.5%; under setting [10], 14.9%; under setting [11], 12.5%. The viability, T/C was 70.1% under setting [12]; 57.8% under setting [13]; 26.5% under setting [14]; 18% under setting [15]; 12.4% under setting [16]; 12.3% under setting [17]. For the same compound, the viability, T/C runs as follows: under setting [18], 90.1%; under setting [19], 60%; under setting [20], 24.5%; under setting [21], 21%; under setting [22], 16.4%; under setting [23], 15.2%. The viability, T/C was 70.4% under setting [24]; 58.7% under setting [25]; 29.7% under setting [26]; 18.2% under setting [27]; 16.7% under setting [28]; 10.5% under setting [29]. Besides, the viability, T/C was 98.9% under setting [30]; 49.8% under setting [31]; 24.1% under setting [32]; 15.3% under setting [33]; 8.29% under setting [34]; 4.78% under setting [35].
In the case of `O=C(c1cc(Cc2n[nH]c(=O)c3ccccc23)ccc1F)N1CCN(C(=O)C2CC2)CC1` + Cc1ccccc1N=Nc1ccc(NC(=O)c2ccnn2C)c(C)c1, the IC50 is over 10000 nM under setting [1]; over 10000 nM under setting [2]; over 10000 nM under setting [3]; over 10000 nM under setting [4]; over 10000 nM under setting [5]. Further, the viability, T/C is 101% (second compound 0.1 µM, first compound 0.0316 µM); 83.6% (second compound 0.1 µM, first compound 0.1 µM); 98.5% (second compound 0.1 µM, first compound 0.316 µM); 104% (second compound 0.1 µM, first compound 1 µM); 73.6% (second compound 0.1 µM, first compound 3.16 µM); 63.1% (second compound 0.1 µM, first compound 10 µM). In addition, the viability, T/C (second compound 0.316 µM, first compound 0.0316 µM) was 90%; the viability, T/C (second compound 0.316 µM, first compound 0.1 µM) is 85.7%; the viability, T/C (second compound 0.316 µM, first compound 0.316 µM) was 101%; the viability, T/C (second compound 0.316 µM, first compound 1 µM) is 88.6%; the viability, T/C (second compound 0.316 µM, first compound 3.16 µM) is 80.8%; the viability, T/C (second compound 0.316 µM, first compound 10 µM) is 77.8%. Moreover, the viability, T/C was 134% (second compound 1 µM, first compound 0.0316 µM); 107% (second compound 1 µM, first compound 0.1 µM); 136% (second compound 1 µM, first compound 0.316 µM); 89.8% (second compound 1 µM, first compound 1 µM); 93% (second compound 1 µM, first compound 3.16 µM); 63.6% (second compound 1 µM, first compound 10 µM). The viability, T/C was 124% (second compound 3.16 µM, first compound 0.0316 µM); 109% (second compound 3.16 µM, first compound 0.1 µM); 129% (second compound 3.16 µM, first compound 0.316 µM); 106% (second compound 3.16 µM, first compound 1 µM); 118% (second compound 3.16 µM, first compound 3.16 µM); 98% (second compound 3.16 µM, first compound 10 µM). The viability, T/C (second compound 10 µM, first compound 0.0316 µM) is 141%; the viability, T/C (second compound 10 µM, first compound 0.1 µM) is 155%; the viability, T/C (second compound 10 µM, first compound 0.316 µM) was 148%; the viability, T/C (second compound 10 µM, first compound 1 µM) is 131%; the viability, T/C (second compound 10 µM, first compound 3.16 µM) was 113%; the viability, T/C (second compound 10 µM, first compound 10 µM) was 103%.
With `CC(C)CC(NC(=O)C(Cc1ccccc1)NC(=O)c1cnccn1)B(O)O` (centres undefined) + Cc1ccccc1N=Nc1ccc(NC(=O)c2ccnn2C)c(C)c1, the 50% inhibitory concentration (IC50) runs as follows: under setting [1], 16.1 nM; under setting [2], 16.3 nM; under setting [3], 17.3 nM; under setting [4], 15.1 nM; under setting [5], 8.76 nM. The viability, T/C was 91.3% under setting [6]; 77.6% under setting [7]; 105% under setting [8]; 0.49% under setting [9]; 0.24% under setting [10]; 1.83% under setting [11]. In addition, the viability, T/C reads like this: under setting [12], 95.3%; under setting [13], 89.4%; under setting [14], 97.4%; under setting [15], 0.67%; under setting [16], 0.36%; under setting [17], 0.41%. In addition, the viability, T/C by setting is: under setting [18], 127%; under setting [19], 99.8%; under setting [20], 101%; under setting [21], 2.56%; under setting [22], 2.56%; under setting [23], 0.41%. In addition, the viability, T/C is 146% under setting [24]; 119% under setting [25]; 82.3% under setting [26]; 1.3% under setting [27]; 0.26% under setting [28]; 0.34% under setting [29]. The viability, T/C was 142% under setting [30]; 153% under setting [31]; 42.7% under setting [32]; 1.3% under setting [33]; 3.29% under setting [34]; 0.52% under setting [35].
Regarding `Nc1ccccc1NC(=O)c1ccc(CNC(=O)OCc2cccnc2)cc1`, the viability, T/C was 97.7% and 110% and 106% (compound 0.0316 µM); 123% and 118% and 108% (compound 0.1 µM); 106% and 127% and 115% (compound 0.316 µM); 98.9% and 105% and 80% (compound 1 µM); 63.6% and 66.5% and 53.9% (compound 3.16 µM); 31.6% and 32.4% and 21.6% (compound 10 µM). For the same compound, where the note is “curve of compound”, the concentration for half-maximal inhibition (IC50) is 5150 nM and 5470 nM and 3260 nM.
`O=C(c1cc(Cc2n[nH]c(=O)c3ccccc23)ccc1F)N1CCN(C(=O)C2CC2)CC1`: the viability, T/C is 95.8% and 118% and 96.5% (compound 0.0316 µM); 104% and 72.7% and 112% (compound 0.1 µM); 117% and 80.1% and 96% (compound 0.316 µM); 89.8% and 84.7% and 92.4% (compound 1 µM); 104% and 92.2% and 90.4% (compound 3.16 µM); 84.5% and 65.4% and 76.3% (compound 10 µM). Further, the IC50 (curve of compound) was over 10000 nM.
